Measurements published in patent US9150531B2, “Tricyclic lactones for treatment of cancer” (Glactone Pharma Development AB, priority 2010, dated 2015).

What was measured:
DU145 [1] = assay: WST-1 proliferation assay, DU145 cells (Example 17); assay type: cell-based, human; conditions: 25.0 μM
DU145 [2] = assay: as above; assay type: cell-based, human
Method: (§1) The human prostate cancer cell line DU145 was used. The cells were cultured in RPMI 1640 medium supplemented with 10% FBS and 1% penicillin-streptomycin. All cells were incubated at 37° C. in a humidified atmosphere of […] and 5% CO2.
WST-1 proliferation assay was performed to study the effects of the test items on the proliferation and viability of cultured prostate cancer cells. DU145 cells were cultured in 96-well plates at the density of 2 000 cells/well in 200 μl of medium. Cells were allowed to set for 24 h and 48 h. The cells were treated with 0.5, 1.0, 2.5, 5.0, 10, and 50 μM of the specific substance for 24 h and 48 h. Samples were made in triplicate. 20 μl WST-1 solution (Roche Applied Science, Mannheim, Germany) was added per well and incubated at 37° C. for 4 h. The absorbance of each well was measured using a scanning multiwell spectrophotometer, ELISA reader at a wavelength of 450 nm and reference wavelength of 690 nm. The results are presented as percent of untreated control cells or the absorbance value.

LNCaP-IL6 cells = assay: WST-1 proliferation assay, LNCaP-IL6 cells; assay type: cell-based, human
Method: as §1, with “lines DU145, LNCaP (from the American Type culture Collection, ATCC) and long-term interleukin-6 (IL-6) stimulated LNCaP cells (LNCaP-IL6 cells) (Hobisch, Ramoner et al. 2001) were” for “line DU145 was”
(§2) WST-1 proliferation assay was performed to study the effects of the test items on the proliferation and viability of cultured prostate cancer cells. LNCaP and DU145 cells were cultured in 96-well plates at the density of 2 000 cells/well in 200 μl of medium. Cells were allowed to set for 24 h. The cells were treated with 0, 2.5, 5 or 10 μM of the specific substance for 24 h and 48 h. Samples were made in triplicate. 20 μl WST-1 solution (Roche Applied Science, Mannheim, Germany) was added per well and incubated at 37° C. for 4 h. The absorbance of each well was measured using a scanning multiwell spectrophotometer, ELISA reader at a wavelength of 450 nm and reference wavelength of 690 nm. The results are presented as percent of untreated control cells or the absorbance value.

DU145 [3] = assay: WST-1 proliferation assay, DU145 cells (Example 16); assay type: cell-based, human
Method: as §1, with “lines DU145, LNCaP (from the American Type culture Collection, ATCC) and long-term interleukin-6 (IL-6) stimulated LNCaP cells (LNCaP-IL6 cells) (Hobisch, Ramoner et al. 2001) were” for “line DU145 was”
as §2

[4] = test system: STAT-3 transcription factor; assay: STAT3 inhibition, luciferase reporter (4xM67 pTATA TK-Luc) in HeLa cells stimulated with γ-Interferon; assay type: cell-based; conditions: Homo sapiens, γ-Interferon 8 h, luciferase activity, read-out: Anti STAT3 IC50
Method: HeLa cells (4×10^4/ml) were transiently transfected with a luciferase reporter plasmid (4×M67 pTATA TK-Luc) driven by artificial promoter containing 4 repeated M67 binding sites in tandem for the STAT-3 transcription factor. The transfections were performed for 24 h using Roti-Fect reagent (Carl Roth, Karlsruhe, Germany) according to the manufacturer's recommendations. After incubation with different concentrations of the extracts for 30 min the transfected cells were stimulated for 8 h with γ-Interferon. Then, the cells were lysed in 25 mM Tris-phosphate pH 7.8, 8 mM MgCl2, 1 mM DTT, 1% Triton X-100, and 7% glycerol. Luciferase activity was measured as described for 5.1 cells.
γ-Interferon induces an average of 5-6 fold induction of the luciferase activity compared to non stimulated cells and this represent the index of transactivation that is represented in our experiment as the maximum levels of γ-Interferon-induced STAT-3 activation (100%). Results below represent the IC50 for each compound in this assay. The IC50 means the concentration of each compound that reduces luciferase activity by 50% and it was calculated by GraphPad software.

| SMILES | IC50 [4] | Proliferation (vs control) Du145 (%) 24 h (DU145 [1]) | Proliferation (vs control) Du145 (%) 48 h (DU145 [1]) | Proliferation (vs control) Du145 (%) 24 h (DU145 [2]; 0.5 μM) | Proliferation (vs control) Du145 (%) 48 h (DU145 [2]; 0.5 μM) | Proliferation (vs control) Du145 (%) 24 h (DU145 [2]; 1.0 μM) | Proliferation (vs control) Du145 (%) 48 h (DU145 [2]; 1.0 μM) | Proliferation (vs control) Du145 (%) 24 h (DU145 [2]; 2.5 μM) | % Proliferation (vs control) 24 h LNCaP-IL6 (LNCaP-IL6 cells; 2.5 uM) | % Proliferation (vs control) 48 h LNCaP-IL6 (LNCaP-IL6 cells; 2.5 uM) | % Proliferation (vs control) 24 h LNCaP-IL6 (LNCaP-IL6 cells; 5 uM) | % Proliferation (vs control) 48 h LNCaP-IL6 (LNCaP-IL6 cells; 5 uM) | % Proliferation (vs control) 24 h LNCaP-IL6 (LNCaP-IL6 cells; 10 uM) | % Proliferation (vs control) 48 h LNCaP-IL6 (LNCaP-IL6 cells; 10 uM) | % Proliferation (vs control) 24 h DU145 (DU145 [3]; 2.5 uM) | % Proliferation (vs control) 48 h Du145 (DU145 [3]; 2.5 uM) | % Proliferation (vs control) 24 h DU145 (DU145 [3]; 5 uM) | % Proliferation (vs control) 48 h Du145 (DU145 [3]; 5 uM) | % Proliferation (vs control) 24 h DU145 (DU145 [3]; 10 uM) | % Proliferation (vs control) 48 h Du145 (DU145 [3]; 10 uM) | other results |
| --- | --- | --- | --- | --- | --- | --- | --- | --- | --- | --- | --- | --- | --- | --- | --- | --- | --- | --- | --- | --- | --- |
| C[C@H]1C=C2C(=O)O[C@@H]3C[C@@H](c4ccccc4)[C@H](C1)[C@]23O (stereo in doubt) [Example 4, 5,5a,6,7,7a,7b-hexahydro-7b-hydroxy-4-methyl-6-phenyl-indeno[1,7-bc]furan-2(4H)-one] | – | 22.17% | 21.83% | 125.24% | 161.90% | 76.74% | 106.97% | 86.48% | – | – | – | – | – | – | – | – | – | – | – | – | Proliferation (vs control) Du145 (%) 48 h (DU145 [2]; 2.5 μM): 106.23%; Proliferation (vs control) Du145 (%) 24 h (DU145 [2]; 5.0 μM): 91.39%; Proliferation (vs control) Du145 (%) 48 h (DU145 [2]; 5.0 μM): 73.13%; Proliferation (vs control) Du145 (%) 24 h (DU145 [2]; 10.0 μM): 45.29%; Proliferation (vs control) Du145 (%) 48 h (DU145 [2]; 10.0 μM): 59.35%; Proliferation (vs control) Du145 (%) 24 h (DU145 [2]; 50.0 μM): 18.31%; Proliferation (vs control) Du145 (%) 48 h (DU145 [2]; 50.0 μM): 11.34% |
| C[C@H]1C=C2C(=O)O[C@@H]3CC[C@H](C1(C)C)[C@]23O (stereo in doubt) [Example 5, 5,5a,6,7,7a,7b-hexahydro-7b-hydroxy-4,5,5-trimethyl-indeno[1,7-bc]furan-2(4H)-one] | – | 28.13% | 13.26% | 105.62% | 98.92% | 101.40% | 93.59% | 72.14% | – | – | – | – | – | – | – | – | – | – | – | – | Proliferation (vs control) Du145 (%) 48 h (DU145 [2]; 2.5 μM): 53.09%; Proliferation (vs control) Du145 (%) 24 h (DU145 [2]; 5.0 μM): 54.75%; Proliferation (vs control) Du145 (%) 48 h (DU145 [2]; 5.0 μM): 35.53%; Proliferation (vs control) Du145 (%) 24 h (DU145 [2]; 10.0 μM): 39.62%; Proliferation (vs control) Du145 (%) 48 h (DU145 [2]; 10.0 μM): 29.96%; Proliferation (vs control) Du145 (%) 24 h (DU145 [2]; 50.0 μM): 14.36%; Proliferation (vs control) Du145 (%) 48 h (DU145 [2]; 50.0 μM): 8.51% |
| O=C1O[C@@H]2[C@H](Cc3ccccc3)C[C@@H]3CCC=C1[C@@]32O (stereo in doubt) [Example 6, 5,5a,6,7,7a,7b-hexahydro-7b-hydroxy-7-benzyl-indeno[1,7-bc]furan-2(4H)-one] | – | 45.01% | 23.80% | 110.14% | 121.11% | 98.76% | 120.77% | 104.13% | – | – | – | – | – | – | – | – | – | – | – | – | Proliferation (vs control) Du145 (%) 48 h (DU145 [2]; 2.5 μM): 101.61%; Proliferation (vs control) Du145 (%) 24 h (DU145 [2]; 5.0 μM): 81.25%; Proliferation (vs control) Du145 (%) 48 h (DU145 [2]; 5.0 μM): 78.86%; Proliferation (vs control) Du145 (%) 24 h (DU145 [2]; 10.0 μM): 43.88%; Proliferation (vs control) Du145 (%) 48 h (DU145 [2]; 10.0 μM): 42.70%; Proliferation (vs control) Du145 (%) 24 h (DU145 [2]; 50.0 μM): 23.59%; Proliferation (vs control) Du145 (%) 48 h (DU145 [2]; 50.0 μM): 9.88% |
| COC(=O)C1=C[C@H](C)C[C@H]2C[C@H](c3ccccc3)[C@@H]3O[C@]123 (stereo in doubt) [Example 7, methyl 5-methyl-2-phenyl-1a,2,3,3a,4,5-hexahydroindeno[1,7a-b]oxirene-7-carboxylate] | 1830 nM | – | – | – | – | – | – | – | 81.79% | 82.60% | 81.21% | 85.26% | 70.45% | 71.27% | 90.64% | 95.09% | 68.55% | 75.05% | 63.86% | 76.58% | – |

The next lines start with results.

| IC50 [4] | SMILES | Proliferation (vs control) Du145 (%) 24 h (DU145 [1]) | Proliferation (vs control) Du145 (%) 48 h (DU145 [1]) | Proliferation (vs control) Du145 (%) 24 h (DU145 [2]; 0.5 μM) | Proliferation (vs control) Du145 (%) 48 h (DU145 [2]; 0.5 μM) | Proliferation (vs control) Du145 (%) 24 h (DU145 [2]; 1.0 μM) | Proliferation (vs control) Du145 (%) 48 h (DU145 [2]; 1.0 μM) | Proliferation (vs control) Du145 (%) 24 h (DU145 [2]; 2.5 μM) | % Proliferation (vs control) 24 h LNCaP-IL6 (LNCaP-IL6 cells; 2.5 uM) | % Proliferation (vs control) 48 h LNCaP-IL6 (LNCaP-IL6 cells; 2.5 uM) | % Proliferation (vs control) 24 h LNCaP-IL6 (LNCaP-IL6 cells; 5 uM) | % Proliferation (vs control) 48 h LNCaP-IL6 (LNCaP-IL6 cells; 5 uM) | % Proliferation (vs control) 24 h LNCaP-IL6 (LNCaP-IL6 cells; 10 uM) | % Proliferation (vs control) 48 h LNCaP-IL6 (LNCaP-IL6 cells; 10 uM) | % Proliferation (vs control) 24 h DU145 (DU145 [3]; 2.5 uM) | % Proliferation (vs control) 48 h Du145 (DU145 [3]; 2.5 uM) | % Proliferation (vs control) 24 h DU145 (DU145 [3]; 5 uM) | % Proliferation (vs control) 48 h Du145 (DU145 [3]; 5 uM) | % Proliferation (vs control) 24 h DU145 (DU145 [3]; 10 uM) | % Proliferation (vs control) 48 h Du145 (DU145 [3]; 10 uM) | other results |
| --- | --- | --- | --- | --- | --- | --- | --- | --- | --- | --- | --- | --- | --- | --- | --- | --- | --- | --- | --- | --- | --- |
| 750 nM | COC(=O)C1=C[C@H](C)C[C@H]2C[C@@H](c3ccccc3)[C@@H]3O[C@]123 (stereo in doubt) [Example 8, methyl 5-methyl-2-phenyl-1a,2,3,3a,4,5-hexahydroindeno[1,7a-b]oxirene-7-carboxylate] | – | – | – | – | – | – | – | 69.23% | 48.79% | 58.97% | 20.28% | 52.67% | 18.81% | 80.94% | 63.59% | 58.19% | 27.29% | 48.49% | 19.98% | – |
| 2010 nM | COC(=O)C1=C[C@H](C)C[C@H]2C[C@@H](Cc3ccccc3)[C@@H]3O[C@]123 (stereo in doubt) [Example 9, methyl 2-benzyl-5-methyl-1a,2,3,3a,4,5-hexahydroindeno[1,7a-b]oxirene-7-carboxylate] | – | – | – | – | – | – | – | 92.78% | 104.12% | 90.02% | 108.49% | 96.73% | 96.48% | 96.36% | 93.96% | 88.29% | 85.24% | 75.01% | 55.43% | – |
| 2980 nM | COC(=O)C1=C[C@H](C)C[C@H]2C[C@H](Cc3ccccc3)[C@@H]3O[C@]123 (stereo in doubt) [Example 10, methyl 2-benzyl-5-methyl-1a,2,3,3a,4,5-hexahydroindeno[1,7a-b]oxirene-7-carboxylate] | – | – | – | – | – | – | – | 81.18% | 74.81% | 92.69% | 80.02% | 76.05% | 23.18% | 86.82% | 88.02% | 98.85% | 92.54% | 66.76% | 28.27% | – |
| 2490 nM | COC(=O)C1=C[C@H](C)C[C@H]2CC(C)(C)[C@@H]3O[C@]123 (stereo in doubt) [Example 11, methyl 2,2,5-trimethyl-1a,2,3,3a,4,5-hexahydroindeno[1,7a-b]oxirene-7-carboxylate] | – | – | – | – | – | – | – | 93.47% | 78.36% | 89.35% | 71.85% | 79.82% | 31.62% | 93.88% | 85.06% | 80.42% | 67.77% | 72.14% | 45.51% | – |
